Laboratory results published in patent US20110313056A1 (BIO SYNTECH CANADA INC., priority 2005, published 2011).

Columns and labels:
[1] = Diffusion of GP from chitosan gel into DMEM bath, phosphorus by Kjeldahl digestion; type: physicochemical; conditions: GP concentration in DMEM bath over time vs free diffusion model
Text: Here we provide evidence that supports the notion that there is no ionic cross-link between the polyelectrolyte and the counter-ion, using gels kept in contact with a bath solution to allow the weak electrolyte (glycerol 2-phosphate in this example) to diffuse out of the gel. […] A simple diffusion model predicted the diffusion profile and allowed the calculation of the diffusion constant in the gel (see section “Diffusion from a gel to a washing solution”) showing an absence of binding with the chitosan gel component.
A 7.5 mL solution (see Table 6) containing chitosan (2.93% w/v Protosan UP CL 213) was placed on ice at 4° C. To this solution, we added 2.25 mL glucosamine (2.16% w/v) drop by drop every 15 seconds followed by 1 mL glycerol 2-phosphate (GP) (33.3% w/v) and 2 mL of hydroxyethyl cellulose. […]
Samples of gel were then taken for analysis of phosphorus content and additional gel samples also taken following three subsequent washes in DMEM for 60 minutes each. Phosphorus was quantified using the established method of Kjeldahl digestion (Liao, N., Total phosphorus in Kjeldahl digests, Milwaukee, Wis.: LACHAT Instruments, 25 p., QuickChem Method 10-115-01-1-C, 1993) followed by the analysis of the absorption at 880 nm of the PO4^3− complex with ammonium molybdate and antimony potassic tartrate.
Concentration cp^m is the measured concentration from the absorption at 880 nm. […]

[2] = Glycerol 2-phosphate titration followed by 31P chemical shift and pH at different temperatures; type: physicochemical
Text: In order to measure the variation of the polyelectrolyte ionization degree (chitosan in the present case), we performed NMR measurements of the glycerol 2-phosphate (GP) ^31P chemical shift. Glycerol 2-phosphate titration curve at different temperatures allow determination pKa2^GP, δa and δb by fitting pH and δ values of the following equation
where δa and δb are the chemical shifts of ^31P in the monovalent and divalent form of GP, respectively.
This last equation is valid for ideal solutions where the proton activity coefficient is γH+=1.
We dissolve 0.594 g of glycerol 2-phosphate (Sigma, No. Cat. G-9891, 297 g/mol with 4.5 moles H2O per mole of GP) in 18 mL H2Odd and 2 mL D2O (Aldrich, No. Cat. 15,188-2-250G) in a graduate cylinder giving a CGP concentration of 100 mM. A total of 11 solutions (see Table 3) with different ionization degree are prepared from this base solution. The pH is measured with an Accumet meter, model 20 using an electrode 9803BN from Orion.

[3] = literature (Voet and Voet); cited from earlier work

| binding of GP to the components of the gel [1] | pKa2^GP ([2]; 5 ° C.) | pKa2^GP ([2]; 15 ° C.) | pKa2^GP ([2]; 25 ° C.) | pKa2^GP ([2]; 37 ° C.) | Structure (SMILES) | Ka1^P [3] | Ka2^P [3] |
| --- | --- | --- | --- | --- | --- | --- | --- |
| lack of binding | 6.13 | 6.14 | 6.16 | 6.16 | O=P(O)(O)OC(CO)CO [GP, glycerol 2-phosphate] | – | – |
| – | – | – | – | – | O=P(O)(O)O [phosphate, inorganic phosphate] | approximately 2.2 | ~6.8 |
